# Assays:
# BxPC3 cells [1] = test: MTT cell survival assay; assay type: cell-based; conditions: Homo sapiens, BXPC-3
# Experimental: (§1) The effect of the test compound on human pancreatic cancer cell viability, expressed as the percentage of cell survival, was determined using the MTT assay [45]–[47]. Cells were grown in 96-well plates at 4–5×10^3 cells per well and exposed to different concentrations of the test compound (0, 1, 5, 12.5, 25, 50 or 100 µM). After incubation for different times, 10 µL of the MTT solution (5 mg/mL; Sigma; St. Louis, MO) were added into each well. The plates were incubated for 2–4 hr at 37°C. The supernatant was then removed and the formazan crystals were dissolved with 100 µL of DMSO. The absorbance at 570 nm was recorded using an OPTImax microplate reader (Molecular Devices; Sunnyvale, CA). The cell survival percentages were calculated by dividing the mean optical density (OD) of compound-containing wells by that of DMSO-containing control wells. Three separate experiments were accomplished to determine the IC50 values.
# HPAC cells [2] = test: MTT cell survival assay; assay type: cell-based; conditions: Homo sapiens, 72 h
# Experimental: as §1
# Mia Paca-2 cells [3] = test: MTT cell survival assay; assay type: cell-based; conditions: Homo sapiens
# Experimental: as §1
# Panc-1 cells [4] = test: MTT cell survival assay; assay type: cell-based; conditions: Homo sapiens
# Experimental: as §1
# HPAC cells [5] = test: Anchorage-independent growth assay (soft agar); assay type: cell-based, human; conditions: 14 days
# Experimental: (§2) Pancreatic cancer cells were treated with various concentrations of KCN1 in 0.8 ml of 0.35% agar containing 10% FBS. The cultures were maintained in 37°C, 5% CO2 incubator for two weeks. Then, cell colonies were observed and scored under a microscope.
# Panc-1 cells [6] = test: Anchorage-independent growth assay (soft agar); assay type: cell-based, human; conditions: Panc-1, soft agar, 14 days
# Experimental: as §2
# BxPC3 cells [7] = test: Annexin V apoptosis assay; assay type: cell-based, human; conditions: BxPC3, 50 µM, 48 h
# Experimental: (§3) Cells in early and late stages of apoptosis were detected using an Annexin V-FITC apoptosis detection kit from BioVision (Mountain View, CA), according the manufacturer’s protocol, [47]. In brief, 2–3×10^5 cells were exposed to various doses of the test compound KCN1 (0, 5, 12.5, 50 µM) and incubated for 48 h prior to analysis. The samples were analyzed using a Becton Dickinson FACSCalibur instrument (Ex = 488 nm; Em = 530 nm). Cells that were positive for Annexin V-FITC alone (early apoptosis) and Annexin V-FITC and PI (late apoptosis) were counted.
# HPAC cells [8] = test: Annexin V apoptosis assay; assay type: cell-based, human; conditions: 50 µM, 48 h, against untreated control
# Experimental: as §3
# Mia Paca-2 cells [9] = test: Annexin V apoptosis assay; assay type: cell-based, human; conditions: Mia Paca-2, 50 µM, 48 h
# Experimental: as §3
# Panc-1 cells [10] = test: Annexin V apoptosis assay; assay type: cell-based, human; conditions: Panc-1, 50 µM, 48 h
# Experimental: as §3
# [11] = Plasma stability determination; assay type: in vitro ADME, mouse
# Experimental: The validated HPLC method was used to evaluate the stability of KCN1 in mouse plasma at 37°C, 4°C and −80°C. KCN1 was dissolved in methanol and diluted with plasma to achieve the two concentrations used in the study: 1 and 10 µM. At the designated time points, samples were removed and extracted using the aforementioned procedure. KCN1 concentrations were quantified and, to illustrate the in vitro stability of the compound, expressed as percentages of the initial concentration.
# [12] = Plasma protein binding assay (ultrafiltration); assay type: in vitro ADME; conditions: mouse plasma
# Experimental: The extent to which KCN1 was bound by mouse plasma proteins was assessed by a previously described method involving the use of a micro-ultrafiltration system. Samples of mouse plasma containing KCN1 at concentrations of 1.0 and 10 µM were maintained at 37°C for 1 h. Controls were prepared using methanol in place of plasma. From each of these preparations, a portion was taken and placed in a sample reservoir of an Amicon Centrifree® ultrafiltration system (Millipore Co., Bedford, MA). The filter systems were centrifuged at 2,000 × g until the reservoirs were dry. From each sample, triplicate portions were taken for analysis by HPLC. The amounts present in the filtrate were designated as “free drug” (F). The concentrations of the unfiltered solutions were also determined by triplicate analyses. This amount represented the “total drug” concentration (T). The amount bound to the filter (X) was also considered. The percentage of KCN1 bound to plasma proteins was calculated by the following formula: % bound = [(T-F-X)/T]×100.
# [13] = Pharmacokinetic study, faecal recovery and late detection (strain not stated); assay type: in vivo, mice; conditions: for initial dose of parental compound recovered in feces: mice
# Experimental: Female CD-1 and nude mice were administered 35 mg/kg body weight of KCN1 as either a single intravenous injection via a tail vein or via an intraperitoneal injection. At selected time points after dosing, groups of three mice/time point were subjected to a retro-orbital bleed. The blood was collected into heparinized tubes, and plasma was separated by centrifugation. Tissues (brain, skeletal muscle, kidneys, liver, spleen, and heart) were collected by necropsy. Urine and feces were collected on ice for 24 h from mice housed in metabolic cages (n = 3/study). The collection containers and cages were washed twice with 0.9% saline solution, and each urine collection and each wash was analyzed separately, then values were added together for each mouse to determine the total KCN1 present in urine during the collection period. Pharmacokinetic values were derived using Phoenix WinNonlin Version 6.0 (Mountain View, CA).
# glioma cells = tested on: glioma cells; set-up: method as in PMID 22923450; conditions: glioma cells ref 31; cited from earlier work
# immortalized fibroblasts = tested on: immortalized fibroblasts; set-up: method as in PMID 22923450; conditions: immortalized fibroblasts ref 31; cited from earlier work
smiles,measurement,setting,value
"COc1ccc(S(=O)(=O)N(Cc2ccc3c(c2)C=CC(C)(C)O3)c2ccccc2)cc1OC [KCN1, 3,4-dimethoxy-N-[(2,2-dimethyl-2H-chromen-6-yl)methyl]-N-phenylbenzenesulfonamide]",inhibition at 100 µM,"BxPC3 cells [1]; BxPC3, 100 µM, 72 h, read-out: inhibition of cell growth",81%
same,IC50,"BxPC3 cells [1]; BxPC3, 72 h, MTT, read-out: Cytotoxicity: IC50",14.62 ± 0.1 µM
same,inhibition at 100 µM,"HPAC cells [2]; 100 µM, read-out: inhibition of cell growth",83%
same,IC50,"HPAC cells [2]; MTT, read-out: Cytotoxicity: IC50",17.91 ± 0.12 µM
same,inhibition at 100 µM,"Mia Paca-2 cells [3]; Mia Paca-2, 100 µM, 72 h, read-out: inhibition of cell growth",61%
same,IC50,"Mia Paca-2 cells [3]; Mia Paca-2, 72 h, MTT, read-out: Cytotoxicity: IC50",69.9 ± 2.12 µM
same,inhibition at 100 µM,"Panc-1 cells [4]; Panc-1, 100 µM, 72 h, read-out: inhibition of cell growth",53%
same,IC50,"Panc-1 cells [4]; Panc-1, 72 h, MTT, read-out: Cytotoxicity: IC50",100 ± 2.35 µM
same,decrease in number of colonies formed,HPAC cells [5],4 fold
same,decrease in number of colonies formed,Panc-1 cells [6],3 fold
same,apoptotic activity,BxPC3 cells [7],no detectable apoptotic activity
same,apoptotic index,HPAC cells [8],1.4 fold
same,apoptotic activity,Mia Paca-2 cells [9],no detectable apoptotic activity
same,apoptotic activity,Panc-1 cells [10],no detectable apoptotic activity
same,compound remaining in mouse plasma,"[11]; 4°C, at least 24 hr",more than 90%
same,compound remaining in mouse plasma,"[11]; 37°C, 8 hr, 1 µM",more than 80%
same,compound remaining in mouse plasma,"[11]; 37°C, 8 hr, 10 µM",more than 80%
same,compound remaining in mouse plasma,"[11]; −80°C, up to 4 wks",more than 92%
same,binding to plasma proteins,[12]; 1.0 µM,90.96%
same,binding to plasma proteins,[12]; 10.0 µM,99.32%
same,time still detectable at a low level,[13]; after intraperitoneal dosing (data not shown),at least five days
same,initial dose of parental compound recovered in feces,[13]; I.P. injection (data not shown),Approximately 1%
same,initial dose of parental compound recovered in feces,[13]; I.V. injection (data not shown),less than 1%
same,cytostatic effect,glioma cells,little cytostatic effect
same,cytostatic effect,immortalized fibroblasts,little cytostatic effect
